Data published in PMC4261083, “An atypical residue in the pore of Varroa destructor GABA-activated RDL receptors affects picrotoxin block and thymol modulation” (Insect Biochemistry and Molecular Biology, 2014).
Residue numbers refer to the chain shown, from its start.

Key:
Assay type in all cases: cell-based
[1] = molecular target: T1, 4M2 mutant Drosophila RDL receptor (N-7′H, T6′M, A20′S and A21′Q) (Drosophila melanogaster, UniProt P25123, A319S/A320Q/N292H/T305M); settings: 4M2 RDL
T1 construct: expressed in transfected cells; host or cells: Xenopus laevis oocytes injected with cRNA
T1 sequence (P25123 45-606 N292H/T305M/A319S/A320Q): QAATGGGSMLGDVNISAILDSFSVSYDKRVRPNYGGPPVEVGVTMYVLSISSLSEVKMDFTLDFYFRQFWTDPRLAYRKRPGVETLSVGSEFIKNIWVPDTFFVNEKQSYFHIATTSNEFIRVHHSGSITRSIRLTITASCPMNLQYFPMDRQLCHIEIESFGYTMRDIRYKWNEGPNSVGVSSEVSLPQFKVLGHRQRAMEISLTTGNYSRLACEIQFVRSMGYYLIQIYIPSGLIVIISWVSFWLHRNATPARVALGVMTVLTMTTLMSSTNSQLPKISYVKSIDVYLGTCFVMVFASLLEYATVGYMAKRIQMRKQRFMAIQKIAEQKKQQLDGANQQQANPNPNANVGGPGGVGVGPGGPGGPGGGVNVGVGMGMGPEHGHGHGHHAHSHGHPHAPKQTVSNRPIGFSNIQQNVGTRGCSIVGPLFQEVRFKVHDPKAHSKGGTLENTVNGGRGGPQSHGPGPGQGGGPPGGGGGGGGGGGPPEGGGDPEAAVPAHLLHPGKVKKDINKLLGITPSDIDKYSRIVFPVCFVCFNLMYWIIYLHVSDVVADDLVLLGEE
Experimental: (§1) X. laevis oocyte-positive females were purchased from NASCO (Fort Atkinson, Wisconsin, USA) and maintained according to standard methods. Harvested stage V-VI Xenopus oocytes were washed in four changes of ND96 (96 mM NaCl, 2 mM KCl, 1 mM MgCl2, 1 mM CaCl2, 5 mM HEPES, pH 7.5), de-folliculated in 1.5 mg ml^−1 collagenase Type 1A for approximately 2 h, washed again in four changes of ND96 and stored in ND96 containing 2.5 mM sodium pyruvate, 0.7 mM theophylline and […].
(§2) Site directed mutagenesis was performed with the QuikChange mutagenesis kit (Agilent, La Jolla, CA). cRNA was transcribed in vitro from linearised pGEMHE cDNA template using the mMessage mMachine T7 Transcription kit (Ambion, Austin, Texas, USA). Stage V and VI oocytes were injected with 5 ng cRNA, incubated at 18 °C, and currents recorded 18–24 h post-injection.
(§3) Currents were recorded at 5 kHz and filtered at a frequency of 1 kHz. Micro-electrodes were fabricated from borosilicate glass (GC120TF-10, Harvard Apparatus, Edenbridge, Kent, UK) using a one stage horizontal pull (P-87, Sutter Instrument Company, California, USA) and filled with 3 M KCl. […] Oocytes were perfused with ND96 at a constant rate of 12 ml min^−1. Drug application was via a simple gravity fed system calibrated to run at the same rate.
(§4) Analysis and curve fitting was performed using Prism v5 (GraphPad Software, San Diego, California, USA). Concentration-response data for each oocyte was normalised to the maximum current for that oocyte. The mean and S.E.M. for a series of oocytes were fitted to the four parameter logistic equation in Prism.

[2] = molecular target: T1, 4M2 mutant Drosophila RDL receptor (N-7′H, T6′M, A20′S and A21′Q); experiment: GABA activation of RDL receptors, two electrode voltage clamp in Xenopus oocytes; settings: 4M2 RDL
Experimental: as §1, §2, §3, §4

[3] = molecular target: T2, A20′S mutant Drosophila RDL receptor (Drosophila melanogaster, UniProt P25123, A319S); experiment: as above
T2 construct: expressed in transfected cells; host or cells: Xenopus laevis oocytes injected with cRNA
T2 sequence (P25123 45-606 A319S): T1 sequence (P25123 45-606 N292H/T305M/A319S/A320Q) with H248N, M261T, Q276A
Experimental: as §1, §2, §3, §4

[4] = molecular target: T3, A21′Q mutant Drosophila RDL receptor (Drosophila melanogaster, UniProt P25123, A320Q); experiment: as above
T3 construct: expressed in transfected cells; host or cells: Xenopus laevis oocytes injected with cRNA
T3 sequence (P25123 45-606 A320Q): T1 sequence (P25123 45-606 N292H/T305M/A319S/A320Q) with H248N, M261T, S275A
Experimental: as §1, §2, §3, §4

Compound | Effect of thymol on GABA-induced responses ([1]; 100 μM thymol, at some GABA concentrations) | Fold change in EC50 ([1]; GABA EC50 control vs +100 μM thymol) | % Imax ([1]; GABA concentration-response in presence of 100 μM thymol) [%] | GABA nH (Hill slope) [2] | GABA nH (Hill slope) [3] | GABA nH (Hill slope) [4]
Cc1ccc(C(C)C)c(O)c1 [Thymol, thymol] | inhibition | 3.0 | 52 ± 4 |  |  | 
NCCCC(=O)O [GABA] |  |  |  | 1.0 ± 0.3 | 1.6 ± 0.4 | 1.9 ± 0.4
